# Experimental data from the supplement of paper PMC4862054.
# Tests used:
# Details in all cases: incubation time: 72 h
# MDA-MB-453 [1] = assay: normalised viability (% of control), CellTiter-Blue; higher = more viable cells (about 100 = DMSO control)
# Procedure: (§1)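 DSRT, CellTiter-Blue viability, 72 h incubation. Signal is normalised to DMSO and benzethonium chloride controls. Value is the normalised response at dose 8.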
# DU-4475 [2] = assay: as above
# Procedure: as §1
# CAL-51 [3] = assay: as above
# Procedure: as §1
# CAL-85-1 [4] = assay: as above
# Procedure: as §1
# HDQ-P1 [5] = assay: as above
# Procedure: as §1
# CAL-148 [6] = assay: as above
# Procedure: as §1
# HCC1599 = assay: drug sensitivity score (DSS), CellTiter-Glo (DSS (AUC-based score)); higher = stronger drug effect (viability inhibition or cytotoxicity); extreme values may be limits of the assay
# Method in brief: (§2)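 Using 20 µl of cell suspension per well, breast cancer cell lines were seeded into 384-well plates pre-loaded with compound at 5 concentrations in 10-fold steps across a compound-specific 10,000-fold range. Incubation lasted 72 h, after which CellTox Green fluorescence at 485/520 nm and then CellTiter-Glo luminescence, following 10 min at room temperature, were recorded. Each plate was normalised to 0.1 % DMSO and a positive kill control before the drug sensitivity score was derived from the area under the fitted dose-response curve.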
# HCC1937 = assay: as above
# Method in brief: as §2
# MCF-10A = assay: as above
# Method in brief: as §2
# HCC1143 = assay: as above
# Method in brief: as §2
# MDA-MB-453 [7] = assay: as above
# Method in brief: as §2
# SK-BR-3 = assay: as above
# Method in brief: as §2
# BT-549 = assay: as above
# Method in brief: as §2
# MDA-MB-436 = assay: as above
# Method in brief: as §2
# DU-4475 [8] = assay: as above
# Method in brief: as §2
# CAL-51 [9] = assay: as above
# Method in brief: as §2
# MDA-MB-468 = assay: as above
# Method in brief: as §2
# BT-474 = assay: as above
# Method in brief: as §2
# CAL-85-1 [10] = assay: as above
# Method in brief: as §2
# HDQ-P1 [11] = assay: as above
# Method in brief: as §2
# MDA-MB-231 = assay: as above
# Method in brief: as §2
# MFM-223 = assay: as above
# Method in brief: as §2
# CAL-148 [12] = assay: as above
# Method in brief: as §2
# Hs578T = assay: as above
# Method in brief: as §2
# CAL-120 = assay: as above
# Method in brief: as §2
Structure (SMILES),normalised viability (MDA-MB-453 [1]; 300 nM),normalised viability (DU-4475 [2]; 300 nM),normalised viability (CAL-51 [3]; 300 nM),normalised viability (CAL-85-1 [4]; 300 nM),normalised viability (HDQ-P1 [5]; 300 nM),normalised viability (CAL-148 [6]; 300 nM),drug sensitivity score (HCC1599),drug sensitivity score (HCC1937),drug sensitivity score (MCF-10A),drug sensitivity score (HCC1143),drug sensitivity score (MDA-MB-453 [7]),drug sensitivity score (SK-BR-3),drug sensitivity score (BT-549),drug sensitivity score (MDA-MB-436),drug sensitivity score (DU-4475 [8]),drug sensitivity score (CAL-51 [9]),drug sensitivity score (MDA-MB-468),drug sensitivity score (BT-474),drug sensitivity score (CAL-85-1 [10]),drug sensitivity score (HDQ-P1 [11]),drug sensitivity score (MDA-MB-231),drug sensitivity score (MFM-223),drug sensitivity score (CAL-148 [12]),drug sensitivity score (Hs578T),drug sensitivity score (CAL-120),normalised viability (MDA-MB-453 [1]; 3000 nM),normalised viability (DU-4475 [2]; 3000 nM),normalised viability (CAL-51 [3]; 3000 nM),normalised viability (CAL-85-1 [4]; 3000 nM),normalised viability (HDQ-P1 [5]; 3000 nM),normalised viability (CAL-148 [6]; 3000 nM)
C/C(=C\c1csc(C)n1)[C@@H]1C[C@@H]2O[C@]2(C)CCC[C@H](C)[C@H](O)[C@@H](C)C(=O)C(C)(C)[C@@H](O)CC(=O)O1 [Patupilone],20.4%,7.32%,12.7%,26.8%,41%,17.6%,2.26,0.309,8.33,13.5,5.87,15.1,20.5,15,6.14,19.1,18.2,5.69,16.3,4.83,6.83,3.26,10.2,12.7,5.48,,,,,,
CNNCc1ccc(C(=O)NC(C)C)cc1 [Procarbazine],,,,,,,0,0,0,0,0,0,0,0,0,0,0,0,0,0,0,0,0,0,0,102%,100%,98.8%,95.7%,127%,101%
CN(C)C[C@@H]1CCn2cc(c3ccccc32)C2=C(C(=O)NC2=O)c2cn(c3ccccc23)CCO1 [Ruboxistaurin],,,,,,,0,3.65,3.64,3,6.05,7.58,6.4,6.47,3.25,6.02,8.68,7,5.13,4.6,6.63,4.27,8.61,0,0,74.2%,61.1%,70.4%,106%,74.2%,79.4%
CN1CCN(CCOc2cc(OC3CCOCC3)c3c(Nc4c(Cl)ccc5c4OCO5)ncnc3c2)CC1 [Saracatinib],,,,,,,2.67,3.31,13.4,2.8,3.51,2.63,3.75,0.426,0,5.08,3.3,6.52,8.75,9.63,8.36,0,1.84,2.32,2.85,60.9%,120%,45%,29.1%,20.3%,65.9%
Cn1cncc1[C@@](N)(c1ccc(Cl)cc1)c1ccc2c(c1)c(-c1cccc(Cl)c1)cc(=O)n2C [Tipifarnib],,,,,,,1.29,6.28,2.13,0,10.3,11.9,5.49,10.2,8.37,11.4,7.6,4.08,1.05,7.3,0,6.28,7.28,4.5,3.76,50.1%,42%,63.4%,65.2%,66.8%,42.6%
O=C1NC(=O)[C@@H](c2cn3c4c(cccc24)CCC3)[C@@H]1c1c[nH]c2ccccc12 [Tivantinib],49.5%,102%,98.3%,68.8%,90.7%,97.9%,0.956,0,1.72,2.06,4.48,4.51,2.94,2.69,0.839,1.38,2.74,0.701,3.66,0,1.39,0,1.93,3.41,0.91,,,,,,
CC[C@]1(O)C[C@H]2CN(CCc3c([nH]c4ccccc34)[C@@](C(=O)OC)(c3cc4c(cc3OC)N(C=O)[C@H]3[C@@](O)(C(=O)OC)[C@H](OC(C)=O)[C@]5(CC)C=CCN6CC[C@]43[C@@H]65)C2)C1 [Vincristine],36%,14.8%,17.2%,40.6%,36.6%,20.4%,20,7.53,10.1,13.6,10.5,27.7,21.1,17.1,6.4,11.7,23,11.5,19.2,7.83,11.5,11.6,12.7,16.6,11.1,30.5%,6.84%,10.4%,38.1%,38.9%,26.8%
